Patent US20250049948A1, “NOVEL IONIZABLE LIPIDS AND LIPID NANOPARTICLES AND METHODS OF USING THE SAME” (Sail Biomedicines, Inc., priority 2021, published 2025)

Assays:
Balb/c mice [1] = assay: In-vivo bioluminescent imaging of LNP compositions (Example 6); conditions: for Bioluminescence (IV) Liver / Bioluminescence (IV) Lung / Bioluminescence (IV) Spleen / Bioluminescence (IV) Whole Body: 4-6 hours post-dose; for Spleen: Liver Ratio: intravenous
[2] = mRNA encapsulation efficiency, Quant-iT RiboGreen RNA Assay; type: physicochemical
Method: (§1) For each LNP composition, the lipid mix and mRNA solution were mixed at a 1:3 ratio by volume, respectively, on a NanoAssemblr Ignite (Precision Nanosystems) at a total flow rate of 9 mL/min. The resulting compositions were then loaded into Slide-A-Lyzer G2 dialysis cassettes (10 k MWCO) and dialyzed in 200 times sample volume of 1×PBS for 2 hours at room temperature with gentle stirring. The PBS was refreshed, and the compositions were further dialyzed for at least 14 hours at 4° C. with gentle stirring. The dialyzed compositions were then collected and concentrated by centrifugation at 3000×g using Amicon Ultra centrifugation filters (100 k MWCO). The concentrated particles were characterized for size, polydispersity, and particle concentration using Zetasizer Ultra (Malvern Panalytical) and for mRNA encapsulation efficiency using Quant-iT RiboGreen RNA Assay Kit (ThermoFisher Scientific).

Balb/c mice [3] = assay: EPO levels in plasma, EPO MSD kit (Example 6); type: in vivo; conditions: mRNA dose 5 μg FLUC + 5 μg EPO, intravenous
[4] = LNP size and polydispersity, Zetasizer Ultra; type: physicochemical
Method: as §1

[5] = mRNA dose 5 μg FLUC (CRE/FLUC 1:1 LNP)

| SMILES | Bioluminescence (IV) Liver (Balb/c mice [1]; mRNA dose 5 μg FLUC + 5 μg EPO) | Bioluminescence (IV) Lung (Balb/c mice [1]; mRNA dose 5 μg FLUC + 5 μg EPO) | Bioluminescence (IV) Spleen (Balb/c mice [1]; mRNA dose 5 μg FLUC + 5 μg EPO) | Bioluminescence (IV) Whole Body (Balb/c mice [1]; mRNA dose 5 μg FLUC + 5 μg EPO) | Spleen: Liver Ratio (Balb/c mice [1]; mRNA dose 5 μg FLUC + 5 μg EPO) | % EE ([2]; LNP with FLUC/EPO 1:1 mRNA) [%] | hEPO (Balb/c mice [3]) | PDI ([4]; LNP with FLUC/EPO 1:1 mRNA) | Size (nm) ([4]; LNP with FLUC/EPO 1:1 mRNA) | Bioluminescence (IV) Liver (Balb/c mice [1]; [5]) | Bioluminescence (IV) Lung (Balb/c mice [1]; [5]) [E + 03] | Bioluminescence (IV) Spleen (Balb/c mice [1]; [5]) | Bioluminescence (IV) Whole Body (Balb/c mice [1]; [5]) | Spleen: Liver Ratio (Balb/c mice [1]; [5]) | % EE ([2]; LNP with CRE/FLUC 1:1 mRNA) [%] | % EE ([2]; LNP with EGFP mRNA) [%] | PDI ([4]; LNP with CRE/FLUC 1:1 mRNA) | Size (nm) ([4]; LNP with CRE/FLUC 1:1 mRNA) | PDI ([4]; LNP with EGFP mRNA) | Size (nm) ([4]; LNP with EGFP mRNA) |
| --- | --- | --- | --- | --- | --- | --- | --- | --- | --- | --- | --- | --- | --- | --- | --- | --- | --- | --- | --- | --- |
| CCCCCCC(CCCCCC)CCCOC(=O)CCCCCCCN(CCCCCCCC(=O)OCCCC(CCCCCC)CCCCCC)CCCCN(C)C [Compound 2130, bis(4-hexyldecyl) 8,8′-((4-(dimethylamino)butyl)azanediyl) dioctanoate] | 7.0E + 04 | 1.4E + 05 | 3.0E + 03 | 1.2E + 04 | 0.045 | 98.5 | 1.5E + 02 | 0.13 | 68.7 | – | – | – | – | – | – | – | – | – | – | – |
| CCCCCC(CCCCC)CCCOC(=O)CCCCCCCN(CCCCCCCC(=O)OCCCC(CCCCC)CCCCC)CCOCCOCCN(C)C [Compound 2144, 4-pentylnonyl 2-methyl-11-(8-oxo-8-((4-pentylnonyl)oxy)octyl)-5,8-dioxa-2,11-diazanonadecan-19-oate] | – | – | – | – | – | – | – | – | – | 7.4E + 04 | 1.2 | 3.0E + 04 | 7.1E + 03 | 0.401 | 96.8 | 98.3 | 0.26 | 78.0 | 0.29 | 73.5 |
| CCCCCCC(CCCCCC)CCCOC(=O)CCCCCN(CCCCCC(=O)OCCCC(CCCCCC)CCCCCC)C(=O)CCCN(C)C [Compound 2134, bis(4-hexyldecyl) 6,6′-((4-(dimethylamino)butanoyl)azanediyl) dihexanoate] | – | – | – | – | – | – | – | – | – | 7.5E + 04 | 1.4 | 4.3E + 03 | 5.4E + 03 | 0.063 | 98.3 | 98.3 | 0.11 | 92.9 | 0.20 | 107.1 |
| CCCCCCC(CCCCCC)CCCOC(=O)CCCCCCCN(CCCCCCCC(=O)OCCCC(CCCCCC)CCCCCC)C(=O)CCN1CCCC1 [Compound 2142, bis(4-hexyldecyl) 8,8′-((3-(pyrrolidin-1-yl)propanoyl)azanediyl) dioctanoate] | 2.4E + 05 | 2.0E + 05 | 5.6E + 05 | 7.8E + 05 | 2.758 | 96.7 | 7.3E + 03 | 0.06 | 69.2 | – | – | – | – | – | – | – | – | – | – | – |
| CCCCCCC(CCCCCC)CCCOC(=O)CCCCCN(CCCCCC(=O)OCCCC(CCCCCC)CCCCCC)CCOCCOCCN(C)C [Compound 2146, 4-hexyldecyl 11-(6-((4-hexyldecyl)oxy)-6-oxohexyl)-2-methyl-5,8-dioxa-2,11-diazaheptadecan-17-oate] | – | – | – | – | – | – | – | – | – | 9.7E + 04 | 1.2 | 4.7E + 04 | 7.4E + 03 | 0.505 | 96.5 | – | 0.26 | 81.0 | – | – |
| CCCCCCC(CCCCCC)CCCOC(=O)CCCCCN(CCCCCC(=O)OCCCC(CCCCCC)CCCCCC)CCCCN(C)C [Compound 2131, bis(4-hexyldecyl) 6,6′-((4-(dimethylamino)butyl)azanediyl) dihexanoate] | – | – | – | – | – | – | – | – | – | 1.3E + 05 | 2.4 | 9.5E + 03 | 1.2E + 04 | 0.076 | 97.1 | – | 0.13 | 71.2 | – | – |
| CCCCCC(CCCCC)CCCOC(=O)CCCCCCCN(CCCCCCCC(=O)OCCCC(CCCCC)CCCCC)CCC(O)CN(C)C (stereo not shown) [Compound 2138, bis(4-pentylnonyl) 8,8′-((4-(dimethylamino)-3-hydroxybutyl)azanediyl) dioctanoate] | – | – | – | – | – | – | – | – | – | 1.7E + 05 | 1.2 | 2.8E + 04 | 3.7E + 03 | 0.236 | 97 | – | 0.35 | 112.7 | – | – |
| CCCCCCC(CCCCCC)CCCOC(=O)CCCCCN(CCCCCC(=O)OCCCC(CCCCCC)CCCCCC)CCC(O)CN(C)C (stereo not shown) [Compound 2140, bis(4-hexyldecyl) 6.6′-((4-(dimethylamino)-3-hydroxybutyl)azanediyl)dihexanoate] | – | – | – | – | – | – | – | – | – | 1.6E + 03 | 5.3 | 1.2E + 05 | 4.3E + 04 | 76.18 | 96.9 | – | 0.16 | 86.9 | – | – |
| CCCCCCC(CCCCCC)CCCOC(=O)CCCCCCCN(CCCCCCCC(=O)OCCCC(CCCCCC)CCCCCC)CCOCCOCCN(C)C [Compound 2145, 4-hexyldecyl 11-(8-((4-hexyldecyl)oxy)-8-oxooctyl)-2-methyl-5,8-dioxa-2,11-diazanonadecan-19-oate] | 1.1E + 05 | 7.2E + 04 | 1.2E + 03 | 4.0E + 03 | 0.012 | 97.6 | 8.4E + 02 | 0.21 | 95.4 | – | – | – | – | – | – | – | – | – | – | – |
| CCCCCC(CCCCC)CCCNC(=O)CCCCCCCN(CCCCCCCC(=O)NCCCC(CCCCC)CCCCC)C(=O)CCN1CCCC1 [Compound 2241, 8-(N-(8-oxo-8-((4-pentylnonyl)amino)octyl)-3-(pyrrolidin-1-yl)propanamido)-N-(4-pentylnonyl) octanamide] | 3.5E + 03 | 5.4E + 04 | 7.6E + 04 | 3.1E + 04 | 22.241 | 94.7 | 1.6E + 03 | 0.15 | 100.89 | – | – | – | – | – | – | – | – | – | – | – |
| CCCCCCC(CCCCCC)CCCOC(=O)CCCCCN(CCCCCC(=O)OCCCC(CCCCCC)CCCCCC)C(=O)CCN1CCCC1 [Compound 2143, bis(4-hexyldecyl) 6,6′-((3-(pyrrolidin-1-yl)propanoyl)azanediyl)dihexanoate] | – | – | – | – | – | – | – | – | – | 1.3E + 05 | 6.3 | 6.5E + 05 | 1.7E + 05 | 5.050 | 97.1 | 97.3 | 0.11 | 78.6 | 0.08 | 83.4 |
| CCCCCC(CCCCC)CCCOC(=O)CCCCCCCN(CCCCCCCC(=O)OCCCC(CCCCC)CCCCC)C(=O)CCCN(C)C [Compound 2132, bis(4-pentylnonyl) 8,8′-((4-(dimethylamino)butanoyl)azanediyl) dioctanoate] | – | – | – | – | – | – | – | – | – | 1.4E + 05 | 1.7 | 2.5E + 04 | 7.0E + 03 | 0.212 | 97.7 | 97.2 | 0.13 | 76.3 | 0.20 | 90.4 |
